Entries after “also recorded” stand apart in the source; their conditions may differ.
Tests used:
human A2BAR = conditions: at 1 mM, human fibroblasts; cited from earlier work
[1] = system: mouse chronic constriction injury (CCI) model; conditions: same dose (3 μmol/kg po); cited from earlier work
mA3AR = biological target: T1, mA3AR (Mus musculus, UniProt Q61618); type: cell-based; conditions: compared to reference full agonist 55
T1 sequence (Q61618 1-319): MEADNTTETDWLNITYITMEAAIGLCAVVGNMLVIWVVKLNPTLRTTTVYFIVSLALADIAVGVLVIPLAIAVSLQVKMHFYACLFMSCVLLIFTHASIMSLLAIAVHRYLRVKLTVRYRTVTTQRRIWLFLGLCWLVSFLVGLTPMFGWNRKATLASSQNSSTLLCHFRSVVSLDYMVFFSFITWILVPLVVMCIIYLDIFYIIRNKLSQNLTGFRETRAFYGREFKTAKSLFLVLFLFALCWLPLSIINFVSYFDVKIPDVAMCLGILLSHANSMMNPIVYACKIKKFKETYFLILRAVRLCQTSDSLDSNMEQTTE

[2] = system: mouse chronic constriction injury (CCI) model; assay: Mouse chronic constriction injury; type: in vivo; conditions: po, 3 μmol/kg
hA3AR [3] = biological target: T2, hA3AR (Homo sapiens, UniProt P0DMS8); assay: Radioligand binding at hA3AR; conditions: ratio of hA3AR Ki
T2 sequence (P0DMS8 1-318): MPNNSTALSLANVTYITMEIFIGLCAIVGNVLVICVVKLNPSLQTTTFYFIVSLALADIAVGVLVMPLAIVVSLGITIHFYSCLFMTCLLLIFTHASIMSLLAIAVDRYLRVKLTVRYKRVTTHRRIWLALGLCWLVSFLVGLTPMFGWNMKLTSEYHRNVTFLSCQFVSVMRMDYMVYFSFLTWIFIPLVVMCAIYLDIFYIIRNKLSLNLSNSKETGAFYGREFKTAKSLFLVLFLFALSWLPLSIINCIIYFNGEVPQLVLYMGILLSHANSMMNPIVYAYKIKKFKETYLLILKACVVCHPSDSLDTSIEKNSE

[4] = PDSP broad off-target screen of receptors and channels; type: binding; conditions: PDSP screen of diverse receptors
[5] = biological target: human dopamine transporter (hDAT) (Homo sapiens, UniProt Q01959); assay: PDSP radioligand binding at human dopamine transporter; conditions: at 10 μM, [3H] tropane radioligand
human dopamine transporter (hDAT), sequence (Q01959 whole entry): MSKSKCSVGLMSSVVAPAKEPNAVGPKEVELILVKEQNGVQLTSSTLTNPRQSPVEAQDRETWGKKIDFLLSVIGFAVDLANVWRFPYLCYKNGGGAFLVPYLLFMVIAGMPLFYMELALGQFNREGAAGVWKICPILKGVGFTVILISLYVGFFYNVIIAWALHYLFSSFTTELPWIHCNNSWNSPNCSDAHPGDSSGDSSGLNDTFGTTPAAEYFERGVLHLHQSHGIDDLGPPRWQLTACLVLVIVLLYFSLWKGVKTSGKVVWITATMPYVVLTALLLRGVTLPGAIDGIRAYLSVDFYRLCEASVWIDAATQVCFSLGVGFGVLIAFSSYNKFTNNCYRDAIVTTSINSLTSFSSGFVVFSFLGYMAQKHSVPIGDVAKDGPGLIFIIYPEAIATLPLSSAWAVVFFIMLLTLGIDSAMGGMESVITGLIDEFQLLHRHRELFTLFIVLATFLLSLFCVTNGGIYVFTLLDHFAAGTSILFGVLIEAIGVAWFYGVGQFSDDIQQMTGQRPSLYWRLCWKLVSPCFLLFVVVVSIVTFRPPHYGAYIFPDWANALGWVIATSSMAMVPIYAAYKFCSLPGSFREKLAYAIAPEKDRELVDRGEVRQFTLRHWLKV

hA1AR = biological target: T3, hA1AR (Homo sapiens, UniProt P30542); assay: Radioligand binding at hA1AR
T3 sequence (P30542 1-326): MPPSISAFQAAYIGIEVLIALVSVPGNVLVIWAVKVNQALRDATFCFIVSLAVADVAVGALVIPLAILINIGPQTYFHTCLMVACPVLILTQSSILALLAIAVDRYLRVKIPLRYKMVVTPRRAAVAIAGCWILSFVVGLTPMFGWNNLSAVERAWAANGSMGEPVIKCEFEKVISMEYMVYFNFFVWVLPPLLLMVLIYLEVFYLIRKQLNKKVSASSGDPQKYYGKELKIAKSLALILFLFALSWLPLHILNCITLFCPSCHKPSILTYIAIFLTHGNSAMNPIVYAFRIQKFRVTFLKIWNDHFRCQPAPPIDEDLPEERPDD

hA2AAR = hA2AAR (Homo sapiens, UniProt P29274); assay: Radioligand binding at hA2AAR
hA2AAR, sequence (P29274 whole entry): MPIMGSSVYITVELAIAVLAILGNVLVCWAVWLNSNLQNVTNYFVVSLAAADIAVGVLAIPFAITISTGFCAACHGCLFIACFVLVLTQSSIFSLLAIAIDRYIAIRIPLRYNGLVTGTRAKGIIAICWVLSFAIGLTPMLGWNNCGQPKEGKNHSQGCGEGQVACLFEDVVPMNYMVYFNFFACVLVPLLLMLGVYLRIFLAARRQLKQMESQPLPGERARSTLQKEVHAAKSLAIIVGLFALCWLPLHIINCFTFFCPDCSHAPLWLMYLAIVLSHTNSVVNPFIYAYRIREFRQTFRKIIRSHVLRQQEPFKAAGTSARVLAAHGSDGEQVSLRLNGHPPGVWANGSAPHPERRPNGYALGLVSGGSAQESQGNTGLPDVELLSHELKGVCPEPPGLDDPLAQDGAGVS

hA3AR [6] = biological target: T2, hA3AR; type: cell-based; conditions: relative to 1 at 10 μM, CHO cells
adenosine deaminase = conditions: cited from earlier work
[7] = system: canine coronary artery A2AAR; conditions: activation of canine coronary artery A2AAR; cited from earlier work

## Cc1ncnc2c1ncn2[C@@H]1O[C@H](CO)[C@@H](O)[C@H]1O [6-methylpurine-9-riboside]
Human A2BAR
  Efficacy relative to 10 μM adenosine: 6%

## CNC(=O)[C@@]12C[C@@H]1[C@@H](n1cnc3c(NCc4cccc(Cl)c4)nc(C#Cc4ccc(F)c(F)c4)nc31)[C@H](O)[C@@H]2O [Compound 8]
[1]
  Protection against mechanoallodynia at 1 h: 100%

## CNC(=O)[C@@]12C[C@@H]1[C@@H](n1cnc3c(/C=C(\O)c4ccccc4)nc(C#Cc4ccccc4)nc31)[C@H](O)[C@@H]2O [Compound 12, (1S,2R,3S,4R,5S)-2,3-Dihydroxy-4-(6-((Z)-2-hydroxy-2-phenylvinyl)-2-(phenylethynyl)-9H-purin-9-yl)-N-methylbicyclo[3.1.0]hexane-1-carboxamide]
mA3AR
  mA3AR agonist efficacy: full agonists
[2]; day 7
  Reversal of mechanoallodynia (neuropathic pain): efficacious in reducing pain
  Reversal of the pain: < 100%
hA3AR [3]
  Fold more potent at hA3AR than C2–Cl derivative 11b: 15 fold

## CNC(=O)[C@@]12C[C@@H]1[C@@H](n1cnc3c(C)nc(C#Cc4ccccc4)nc31)[C@H](O)[C@@H]2O [Compound 15]
[2]; day 7
  Reversal of mechanoallodynia (neuropathic pain): efficacious in reducing pain
  Reversal of the pain: < 100%
[4]
  Off-target interactions: no significant binding inhibition
[5]
  Enhancement of hDAT radioligand binding: roughly 200%

## CNC(=O)[C@@]12C[C@@H]1[C@@H](n1cnc3c(C)nc(C#Cc4ccc(Cl)s4)nc31)[C@H](O)[C@@H]2O [Compound 19, (1S,2R,3S,4R,5S)-4-(2-((5-Chlorothiophen-2-yl)ethynyl)-6-methyl-9H-purin-9-yl)-2,3-dihydroxy-N-methylbicyclo[3.1.0]hexane-1-carboxamide]
hA1AR
  Ki: > 10 µM
hA2AAR
  Ki: > 10 µM
hA3AR [6]
  hA3AR agonist efficacy: potent, full agonists

## CNC(=O)[C@@]12C[C@@H]1[C@@H](n1cnc3cnc(C#Cc4ccc(Cl)s4)nc31)[C@H](O)[C@@H]2O [Compound 21, (1S,2R,3S,4R,5S)-4-(2-((5-Chlorothiophen-2-yl)ethynyl)-9H-purin-9-yl)-2,3-dihydroxy-N-methylbicyclo[3.1.0]hexane-1-carboxamide]
[2]; day 7
  Duration of action: at least 5 h
  Reversal of mechanoallodynia (neuropathic pain): clearly more efficacious and longer lasting; also recorded: completely reversing mechanoallodynia
[2]; day 7, listed as MRS7220
  Reversal of mechanoallodynia (neuropathic pain): completely reversed
hA1AR
  Ki: > 10 µM
[4]
  Off-target interactions: no off-target interactions
hA2AAR
  Ki: > 10 µM
hA3AR [6]
  hA3AR agonist efficacy: potent, full agonists

## OC[C@H]1O[C@@H](n2cnc3cncnc32)[C@H](O)[C@@H]1O [Compound 56, purine-9-riboside]
Adenosine deaminase
  Adenosine deaminase inhibition: weak inhibitor
[7]
  Fold less potent than adenosine: 40 fold
Human A2BAR
  Efficacy relative to 10 μM adenosine: 15%
